Measurements: ChEMBL document CHEMBL1133348, “Quinonic derivatives active against a virulent strain of Toxoplasma gondii. Synthesis of 2-methylfuro[2,3-g]- and [3,2-g]isoquinolinetriones” (2000)

These molecules were tested on THP-1 (assay: Percentage growth inhibition of Toxoplasma gondii at concentration of 2 ug/mL using an human myelomonocytic cell line THP-1). Settings: read-out: GI.
Format: functional

SMILES | inhibition of growth at 2 µg/mL [%]
Cc1c2c(cc(=O)n1C)C(=O)c1ccccc1C2=O | 56
Nc1ccc(S(=O)(=O)Nc2ncccn2)cc1 [SULFADIAZINE] | 90
Cc1cnc2c(c1)C(=O)c1c(oc(C)c1C)C2=O | 96.5
Cc1cc2c(o1)C(=O)c1cnc(O)cc1C2=O | 62
Cc1cc2c(o1)C(=O)c1cc(O)ncc1C2=O | 92
Cn1cc2c(cc1=O)C(=O)c1ccccc1C2=O | 52
CCc1nc(N)nc(N)c1-c1ccc(Cl)cc1 [PYRIMETHAMINE] | 94
O=C1c2cc(O)ncc2C(=O)c2c(O)cccc21 | 54
Cc1nc(O)cc2c1C(=O)c1cccc(O)c1C2=O | 50
O=C1C=C(Br)C(=O)c2ccccc21 [2-Bromo-1,4-naphthoquinone] | 66
O=C1c2ccccc2C(=O)c2cc(O)ncc21 | 80
O=C1C(O)=C([C@H]2CC[C@H](c3ccc(Cl)cc3)CC2)C(=O)c2ccccc21 [ATOVAQUONE] | 95
CCOc1cnc2c(c1C)C(=O)c1oc(C)c(C)c1C2=O | 89.5
Cc1cc2c(o1)C(=O)C=C(Br)C2=O | 83
CCC[C@@H]1C[C@@H](C(=O)N[C@@H]([C@H]2O[C@H](SC)[C@H](O)[C@@H](O)[C@H]2O)[C@H](C)Cl)N(C)C1 [CLINDAMYCIN] | 86
